In patent publication US4020111A, “Propynyloxy alkyl arene insecticides” (priority 1975, dated 1977):

Legend:
mice [1] = test: synergism of acute toxicity of Dimetilan, GS 13005, Secobarbital and Methadone (intraperitoneal); assay type: in vivo, Swiss albino white male mice; conditions: 48 hours, of eight mice
In short: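 Male Swiss albino mice (5–6 weeks, 23–27 g), eight per dose; synergist in corn oil given i.p. 1 h before i.p. insecticide or drug (drugs in distilled water). Lethality recorded over at least 6 h; controls received corn oil plus agent alone.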

houseflies = test: percent kill with Diazinon, Table XXVII (strain not given); assay type: in vivo, housefly; conditions: Diazinon 5 + synergist 10 μg/fly, 1440 min
mice [2] = test: extension of Noludar sleeping time by synergists; assay type: in vivo, Swiss albino white male mice; conditions: Noludar 110 mg/K, synergist 110 mg/K
In short: (§1)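 Swiss albino male mice (~38 days, 25-30 g) given synergist at 74.0 or 110.0 mg/kg in corn oil 1 h before Secobarbital 37.0 mg/kg or Noludar 110.0 mg/kg in water. Sleeping time measured from drug dosing to righting-reflex recovery; relative sleeping time = treated ÷ drug-only control.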

CH strain flies = test: spray application of pyrethrum, average percent knockdown with time; assay type: in vivo, housefly (CH strain); conditions: pyrethrum 100 + synergist 100 mg/cc
Description: The average percent knockdown of CH strain flies, as a function of time, resulting from spray application of pyrethrum, alone and with synergists, are given in Table XXXXIII. Duplicate tests were performed using 50 CH strain houseflies per test. Test solutions of 100 mg and 200mg of pyrethrum per cc of acetone, 200 mg of synergist per cc of acetone, and a mixture of 100 mg of pyrethrum and 100 mg of synergist per cc of acetone were prepared. The fifty CH strain houseflies were put in a 40 liter spray chamber and 1 cc of the test solution was sprayed into the test chamber with a spray pistol. The synergists alone at 200 mg/cc caused no knockdown.

[3] = test system: polyvalent resistant (CH strain) houseflies; test: whole plant or invertebrate; assay type: in vivo, housefly (CH strain); conditions: CH strain
mice [4] = test: extension of Secobarbital sleeping time by synergists; assay type: in vivo, Swiss albino white male mice; conditions: Secobarbital 37 mg/K; for Relative Sleeping Time: treated/control
In short: as §1

Structure (SMILES): C#CCON=Cc1cccc2ccccc12 [I-I]
- number of mice dead (mice [1]; Dimetilan 8 mg/kg + synergist 80 mg/kg ip): 0
- number of mice dead (mice [1]; Dimetilan 8 mg/kg + synergist 240 mg/kg ip): 3
- percent kill (houseflies): 55%
- Mean Sleeping Time (mice [2]): 62 min
- Relative Sleeping Time (mice [2]; treated/control): 2.1
- average percent knockdown (CH strain flies; 5 min): 4%
- average percent knockdown (CH strain flies; 10 min): 7%
- average percent knockdown (CH strain flies; 15 min): 19%
- average percent knockdown (CH strain flies; 20 min): 29%
- average percent knockdown (CH strain flies; 25 min): 40%
- average percent knockdown (CH strain flies; 30 min): 49%
- average percent knockdown (CH strain flies; 40 min): 57%
- average percent knockdown (CH strain flies; 50 min): 86%
- average percent knockdown (CH strain flies; 60 min): 92%
- percent kill after 24 hours ([3]; GS 13005 1 + synergist 2 μg/fly): 47%
- percent kill after 24 hours ([3]; Pyrethrum 2 + synergist 4 μg/fly): 52%
- Mean Sleeping Time (mice [4]; synergist 74 mg/K): 31 min
- Relative Sleeping Time (mice [4]; synergist 74 mg/K): 1.1
- Mean Sleeping Time (mice [4]; synergist 110 mg/K): 102 min
- Relative Sleeping Time (mice [4]; synergist 110 mg/K): 1.7
